US20250255847A1, “[…]s: Novel Drugs for Triple Negative Breast Cancer” (SIMMARON RSEARCH INC, priority 2024, published 2025)

Assays:
[1] = system: human mammary epithelial cells (HMECs); test: LDH assay in healthy human mammary epithelial cells; type: cell-based; settings: 1, 2, 5, 10 and higher nM doses, 48 hrs
Procedure: FIG. 11 illustrates an embodiment of the present invention and illustrates SIM-1 and SIM-2 induced apoptosis in MDA-MB-468 TNBC cells, but not HMEC control cells. MDA-MB-468 cells were treated with increasing doses of (A) SIM-1 and (B) SIM-2 for 48 hrs followed by lactate dehydrogenase (LDH) release assay in the supernatants. The result was offset with cell-bound LDH and presented as a percent of DMSO control as discussed under method section. Half-maximal cytotoxicity or CT50 analyses were performed plotting maximum response as an index of increasing doses of (C) SIM-1 and (D) SIM-2. AnnexinV (green) and propidium iodide (red) dual-labeling were performed to evaluate apoptotic response in MDA-MB-468 cells once treated with increasing doses of (E) SIM-1 and (F) SIM-2 for 24 hrs. Nuclei were stained with DAPI. TUNEL assay was performed in MDA-MB-468 cells after treatment with 25 nM of (G) SIM-1. Brown-colored TUNEL bodies were visualized at cresyl violet-stained blue nuclei. (H) The number of TUNEL bodies were counted as a percent of 100 cresyl violet-stained blue cells. Ten independent images were counted for the quantification study. Similarly, SIM-2 was assessed for (I) TUNEL and (J) subsequent quantification analyses. […]
LDH Assay. […] Each dose was measured in triplicates. […] The plate was read at 490 nm (background at 680 nm). […]

[2] = system: STAT3-dependent tumor-promoting genes; test: Gene array of 66 STAT3-dependent tumor-promoting genes in PDX tumors; type: in vivo, mouse; settings: tumor tissue; for number of the 66 STAT3-dependent genes strongly downregulated: out of 66 genes
Procedure: FIG. 15 illustrates an embodiment of the present invention and illustrates SIM 1 and 2 inhibited Y705P phosphorylation of STAT3 and the expressions of STAT3-dependent tumor supportive genes. (A) DAB immunostaining of Y705P STAT3 in tumor parenchyma of all three groups. (B) Quantitative analysis of Y705P STAT3-ir cells was performed by counting Y705P STAT3 cells in 15 different images, converting into a percent scale, and then plotting in a scatter histogram. On-way ANOVA followed by multiple comparison test indicated ****p<0.0001 versus control. (C) DAB immunostaining of S727P STAT3 followed by a (D) quantitative analysis of S727P STAT3-ir cells was performed in 15 different images and then plotted as a percent of total cells by a scatter histogram. On-way ANOVA represents no significance (NS) between groups. (E) Immunoblot analyses of Y705PSTAT3 (Rabbit […] antibody Cat #710093; Invitrogen), S727PSTAT3 (Mouse 1° antibody cat #MA5-15208; Invitrogen) followed by normalization with loading control β-actin (Mouse 1° antibody cat #MA1-744; Invitrogen). (F) A cDNA-based gene array of 66 STAT3-dependent tumor promoting genes were analyzed in TNBC tumors of vehicle-, SIM-1-, and SIM-2-treated mice. (G) A scatter plot summarized the gene array results. Based on the relative levels of expressions, gene levels were classified as low, moderate, and highly expressed. Results are confirmed after three different experiments.
These genes include anti-apoptotic genes such as bcl-2, survivin, and bcl-xl; cell cycle progression markers such as cyclin D1, akt, and p21.

Row | SMILES | cell death in HMEC cells (LDH) compared to DMSO control [1] | number of the 66 STAT3-dependent genes strongly downregulated [2] | tumor growth suppressor gene p53 expression [2]
1 | O=C(O)CCC(=O)NCc1csc2ccc(Cl)cc12 [SIM-1, 4-[(5-chloro-1-benzothiophen-3-yl)methylamino]-4-oxobutanoic acid] | unable to augment any significant cell death | 55 | significantly upregulated
2 | CCOC(=O)c1c(NC(C)=O)sc2c(Cl)c(/C=N/O)ccc12 [SIM-2, ethyl 2-acetamido-7-chloro-6-(hydroxyiminomethyl)-1-benzothiophene-3-carboxylate] | unable to augment any significant cell death | 55 | significantly upregulated
